# Data taken from patent US20230138395A1, “PHARMACEUTICAL COMPOSITIONS OF A THERAPEUTIC POLYENE MACROLIDE AND METHODS OF THEIR USE” (priority 2020, published 2023).
# Where “and” joins values, the source holds several entries; their conditions need not be identical. Equal values may be shown once. Read-outs that look alike come from different tables or passages of the source.
# Assays:
# C. tropicalis = test: MFC determination; format: cell-based; settings: for MFC50 / MFC90: C. tropicalis; for MFC50: kills 50% of strains; for MFC90: kills 90% of strains; for MFC Range: C. tropicalis strains, in µg/mL
# Candida albicans = test: MFC determination; format: cell-based; settings: for MFC Range: in µg/mL; for MFC50: kills 50% of strains; for MFC90: kills 90% of strains; for MFC: individual C. albicans strain with elevated MICs to non-polyene comparators (Table 22)
# [1] = system: individual Aspergillus spp. (Table 15, species not named); test: MIC testing (CLSI M38-A2), Table 15; format: cell-based; settings: Aspergillus sp. of Table 15, caspofungin read as MEC; for MIC Range: in µg/mL; for MIC50: inhibits 50% of strains; for MIC90: inhibits 90% of strains
# [2] = system: Fusarium strains (Table 18); test: MIC testing (CLSI M38-A2), Table 18; format: cell-based, Fusarium spp.; settings: for MIC50: inhibits 50% of strains; for MIC90: inhibits 90% of strains
# [3] = system: individual Aspergillus spp. (Table 13, species not given); test: MFC determination, Table 13; format: cell-based; settings: Aspergillus sp. of Table 13; for MFC50: kills 50% of strains; for MFC90: kills 90% of strains
# C. parapsilosis = test: MFC determination; format: cell-based; settings: for MFC50 / MFC90: C. parapsilosis; for MFC50: kills 50% of strains; for MFC90: kills 90% of strains; for MFC: individual C. parapsilosis strain with elevated MICs to non-polyene comparators (Table 22)
# all Candida strains = test: MIC testing (CLSI M27-A3), summary; format: cell-based; settings: for MIC50: inhibits 50% of strains; for MIC90: inhibits 90% of strains
# C. krusei strains = test: MIC testing (CLSI M27-A3); format: cell-based; settings: for MIC Range: C. krusei strains, in µg/mL; for MIC50 / MIC90: C. krusei; for MIC50: inhibits 50% of strains; for MIC90: inhibits 90% of strains; for MIC: individual C. krusei strain with elevated MICs to non-polyene comparators (Table 22)
# A. fumigatus AF91 = test: In vitro activity (MIC) against the infecting strain, Example 17; format: cell-based, Aspergillus fumigatus; settings: Aspergillus fumigatus
# Method: Minimum Inhibitory Concentration: MIC testing was performed according to the Clinical and Laboratory Standards Institute (CLSI) M27-A3 and M38-A2 standards for the susceptibility testing of yeasts and filamentous fungi, respectively (Cryptococcus isolates were incubated for 72 h). For yeast strains, the incubation temperature and time were 35° C. and 24-48 h, respectively, and the inoculum size was 0.5-2.5×10^3 CFU/ml. For filamentous strains, the inoculum size was 0.4-5×10^4 CFU/ml, and the incubation time was strain and drug specific. RPMI 1640 was the test medium throughout, with the exception of the use of YNB for Cryptococcus. Inhibition endpoints for compound 1A were recorded at 50% and 100% after both 24 h and 48 h incubation; caspofungin results against Aspergillus strains were read as minimum effective concentrations (MEC), the lowest concentration that leads to small, rounded, compact growth as compared to the confluent growth of the control.
# [4] = system: individual Aspergillus spp. (Table 12, species not named); test: MFC determination, Table 12; format: cell-based; settings: Aspergillus sp. of Table 12; for MFC50: kills 50% of strains; for MFC90: kills 90% of strains
# [5] = system: Blastomyces dermatitidis, Coccidioides immitis, and Histoplasma capsulatum strains; format: cell-based; settings: dimorphic fungal isolates; in µg/mL
# [6] = system: individual Aspergillus spp. (Table 13, species not given); test: MIC testing (CLSI M38-A2), Table 13; format: cell-based; settings: Aspergillus sp. of Table 13, caspofungin read as MEC; for MIC Range: in µg/mL; for MIC50: inhibits 50% of strains; for MIC90: inhibits 90% of strains
# Paecilomyces strains = test: MFC determination; format: cell-based, Paecilomyces spp.; settings: Paecilomyces strains (5)
# [7] = Fluconazole-susceptible C. albicans n = 13
SMILES,MFC50 (C. tropicalis),MFC90 (C. tropicalis),MFC50 (Candida albicans; [7]),MFC90 (Candida albicans; [7]),MIC50 [1],MIC90 [1],MIC50 [2],MIC90 [2],MFC50 [3],MFC90 [3],MFC50 (C. parapsilosis),MFC90 (C. parapsilosis),MFC (C. parapsilosis; in µg/mL),MIC50 (all Candida strains),MIC90 (all Candida strains),MIC Range (C. krusei strains),MIC50 (C. krusei strains),MIC90 (C. krusei strains),MFC50 [4],MFC90 [4],further results
"CC[C@H](C)C[C@H](C)CCCCCCCCC(=O)N[C@H]1C[C@@H](O)[C@@H](NCCN)NC(=O)[C@@H]2[C@@H](O)CCN2C(=O)[C@H]([C@H](O)CCN)NC(=O)[C@H]([C@H](O)[C@@H](O)c2ccc(O)cc2)NC(=O)[C@@H]2C[C@@H](O)CN2C(=O)[C@H]([C@@H](C)O)NC1=O [Caspofungin, caspofungin]",32 mg/L,> 32 mg/L,0.25 mg/L,2 mg/L,0.25 mg/L,0.5 mg/L,> 32 mg/L,> 32 mg/L,> 32 mg/L,> 32 mg/L,> 32 mg/L,> 32 mg/L,>32,0.5 mg/L,2 mg/L,0.5-16,1 mg/L,4 mg/L,> 32 mg/L,> 32 mg/L,"MFC Range (Candida albicans; [7]): 0.5-32; MFC (Candida albicans; listed as Cas): >32 (2×) and 32; MIC Range [1]: 0.25-1; MIC Range (all Candida strains; in µg/mL): 0.06-16; MIC (C. krusei strains): 16 mg/L; MIC (A. fumigatus AF91; minimum effective concentration, read-out: MIC read as MEC): 0.25 mg/L; MIC Range [5]: 0.03-0.5; MIC Range [6]: 0.25-1; MIC50 [6]: 0.25 mg/L; MIC90 [6]: 0.5 mg/L"
"OC(Cn1cncn1)(Cn1cncn1)c1ccc(F)cc1F [Fluconazole, fluconazole]",> 64 mg/L,> 64 mg/L,> 32 mg/L,> 32 mg/L,64 mg/L,> 64 mg/L,> 32 mg/L,> 32 mg/L,64 mg/L,64 mg/L,> 64 mg/L,> 64 mg/L,>64,0.5 mg/L,> 32 mg/L,2-32,16 mg/L,32 mg/L,> 64 mg/L,> 64 mg/L,"MFC Range (C. tropicalis): >64; MFC Range (Candida albicans; Fluconazole-resistant C. albicans n = 7): >32; MFC (Candida albicans; listed as Flu): >32 (6×) and >64; MFC Range (Paecilomyces strains): > 64 mg/L; MIC Range ([2]; in µg/mL): >32; MFC Range [3]: 64 mg/L; MFC Range (C. parapsilosis; C. parapsilosis strains, in µg/mL): >64; MIC (C. krusei strains): 16 mg/L; MFC Range [4]: > 64 mg/L; MIC Range [6]: 64; MIC50 [6]: 64 mg/L; MIC90 [6]: 64 mg/L"
"C[C@@H](c1ncncc1F)[C@](O)(Cn1cncn1)c1ccc(F)cc1F [Voriconazole, voriconazole]",> 32 mg/L,> 32 mg/L,> 32 mg/L,> 32 mg/L,0.5 mg/L,0.5 mg/L,16 mg/L,> 16 mg/L,8 mg/L,> 8 mg/L,> 32 mg/L,> 32 mg/L,>32,0.06 mg/L,1 mg/L,<0.06-0.5,0.125 mg/L,0.25 mg/L,4 mg/L,> 16 mg/L,MFC Range (C. tropicalis): >32; MFC Range (Candida albicans; [7]): >32; MFC (Candida albicans; listed as Vor): 16 and >32 (2×); MIC Range [1]: 0.25-2; MIC (A. fumigatus AF91; read-out: MIC): 1 mg/L; MIC Range [5]: <0.03-0.125; MIC Range [6]: 0.25-2; MIC50 [6]: 0.5 mg/L; MIC90 [6]: 1 mg/L
